According to patent publication US9920020B2, “Using squaraine dyes as near infrared fluorescent sensors for protein detection” (The University of Akron, priority 2011, dated 2018):
pKd: −log10 of the molar value.

Columns and labels:
zebrafish embryos/larvae = assay: Toxicity to zebrafish embryos/larvae; type: in vivo
Source text: (§1) The most attractive application for protein sensing is labeling and imaging in living organisms. Zebrafish have recently become an important model organism for the study of vertebrate imaging. This is because the embryos of zebrafish are transparent, allowing for clear observation of their organs without the need for dissection. The optical transparancy of zebrafish, therefore, provides a convenient organism for detection of ions by fluorescence microscopy. No published reports are found on the use of zebrafish for BSA fluorescence microscopy. Herein, DNSA-SQ was examined in developing zebrafish for its applicability. DNSA-SQ labeling was examined in developing zebrafish by adding DNSA-SQ to fish tank water (treatment lasted for one hour at room temperature). There was no labeling in control (i.e. without BSA supplement) embryos at 2.5 hours post fertilization (hpf, FIG. 20B), 36 hpf and 73 hpf (data not shown). […] At 73 hpf, the labeling was detected in the yolk and yolk extension (FIG. 20D), eye (FIG. 20E) and pigmented cells in the body trunk and tail regions (FIGS. 20G and H). […] The DNSA-SQ labeling pattern show good biocompatibility, excellent turn-on fluorescence.
Therefore DNSA-SQ was proving not toxic to the subjects. […]

[1] = target: T1, formaldehyde dehydrogenase (Pseudomonas putida, UniProt P46154); assay: Fluorescence response to formaldehyde dehydrogenase in PBS; type: binding
T1 construct: purchased SIGMA
T1 sequence (P46154 whole entry): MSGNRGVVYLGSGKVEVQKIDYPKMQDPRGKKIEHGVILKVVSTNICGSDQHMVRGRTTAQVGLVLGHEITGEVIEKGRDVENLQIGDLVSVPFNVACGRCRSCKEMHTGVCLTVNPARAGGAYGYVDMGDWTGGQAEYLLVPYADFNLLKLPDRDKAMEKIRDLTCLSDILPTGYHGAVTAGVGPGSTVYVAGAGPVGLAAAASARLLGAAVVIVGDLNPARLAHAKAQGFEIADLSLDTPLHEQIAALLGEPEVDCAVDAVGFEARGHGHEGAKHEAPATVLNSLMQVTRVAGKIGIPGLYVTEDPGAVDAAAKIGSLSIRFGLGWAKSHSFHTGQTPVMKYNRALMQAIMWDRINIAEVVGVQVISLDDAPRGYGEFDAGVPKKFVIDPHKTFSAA
Protocol: (§2) The fluorescence enhancement upon binding BSA reached over 140-fold, which was quite large in comparison with those being reported. The detection limit was 1 μg/mL of BSA (signal-to-noise ratio was 3). The fluorescence response of DNSA-SQ to other proteins in PBS was also investigated. […] The observed specific binding to site I can be attributed to hydrophobic pockets of BSA in its structure.

[2] = Fluorescence quantum yield of the dye in aqueous solution; type: physicochemical; details: no protein
Protocol: NMR spectra were collected on a Varian 300 Gemini spectrometer. Mass spectrometric data were obtained on a HP1100LC/MSD mass spectrometry. HRMS data were performed on a TOF MS system. UV-Vis spectra were acquired on a Hewlett-Packard 8453 diode-array spectrometer. Fluorescence spectra were obtained on a HORIBA Jobin Yvon NanoLog spectrometer. The quantum yield of fluorescence of the sample was measured using bis(3-ethylbenzothiazol-2-ylidene)squaraine in ethanol (Φ=0.21) as a standard and calculated using equation (1): […]
Where Φunk is i the fluorescence quantum yield of the sample, Φstd is the fluorescence quantum yield of the standard, Iunk and Istd are the integrated emission intensities of the sample and the standard, respectively, Aunk and Astd are the absorbance of the sample and the standard at the excitation wavelength, respectively, and nunk and nstd are the refractive indexes of the corresponding solution.
In the presence of the anionic surfactant (sodium dodecyl sulfate, SDS) (1.7 mM or 0.05% wt), the fluorescence signals are further decreased by a factor of about 3. […] The emission signals at ˜684 nm is assigned to the monomeric 1b, as the fluorescence of squaraine dye typically has a small Stokes' shift (about 10-30 nm). […] Similar fluorescence enhancement is also observed from 1a and 1c after the addition of BSA. […]

BSA [3] = target: T2, BSA (Bos taurus, UniProt P02769); assay: Fluorescence response of DNSA-SQ to BSA in aqueous solution without aggregation agent; type: binding, bovine
T2 construct: purchased Acros Chemical
T2 sequence (P02769 25-607): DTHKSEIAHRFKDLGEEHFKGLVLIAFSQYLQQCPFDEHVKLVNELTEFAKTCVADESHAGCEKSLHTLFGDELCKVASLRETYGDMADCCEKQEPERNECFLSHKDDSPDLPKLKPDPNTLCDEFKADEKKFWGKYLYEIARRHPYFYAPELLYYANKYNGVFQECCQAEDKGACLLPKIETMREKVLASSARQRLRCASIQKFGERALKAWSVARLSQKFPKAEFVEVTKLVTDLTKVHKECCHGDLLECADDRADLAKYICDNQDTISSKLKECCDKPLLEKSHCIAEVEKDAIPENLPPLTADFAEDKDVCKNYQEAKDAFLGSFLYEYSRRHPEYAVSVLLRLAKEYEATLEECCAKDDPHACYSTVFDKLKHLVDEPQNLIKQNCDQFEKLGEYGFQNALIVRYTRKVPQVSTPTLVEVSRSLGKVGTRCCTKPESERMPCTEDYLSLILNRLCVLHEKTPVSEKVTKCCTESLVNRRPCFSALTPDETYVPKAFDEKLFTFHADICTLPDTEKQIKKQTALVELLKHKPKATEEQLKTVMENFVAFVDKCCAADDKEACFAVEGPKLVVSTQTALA
Protocol: (§3) With the 1:1 binding model from fitting of absorption titration spectra, the dissociation constant for BSA was estimated to be 9.35×10^−6 M upon titration with BSA in aqueous solution. In sharp contrast, there is no response to BSA in aqueous solution for 1b, as its binding to BSA requires addition of surfactant SDS or graphene.
as §2

BSA site I and site II = target: T3, BSA site I and site II (Bos taurus, UniProt P02769); assay: Site-selective ligand displacement from BSA/DNSA-SQ complex; type: binding, bovine
T3 construct: purchased Acros Chemical
T3 sequence (P02769 25-607): as above
Source text: The site-selective binding of BSA/DNSA-SQ was probed by employing a site selective binding ligand, which would result in decrease in fluorescence intensity when the squaraine dyes were displaced from a specific BSA binding site. […] The observed fluorescence increasing thus implies that the BSA conformation change as DP entered the site II, which stimulated interaction of BSA/DNSA-SQ at site I. It was noted that a squaraine dye can selectively bind BSA at site I (˜40%) and site II (˜60%) on the assumption of no dependency between Site I and II of BSA. Circular dichroism (CD) was also used to probe the proposed binding mechanism. Similar CD spectra usually represent a similar binding mode between the sensor and protein. […] Under the same conditions, the effect of DNSA-SQ on the CD spectrum of BSA was similar to that of DNSA. The result further supports that DNSA-SQ was binding to site I of BSA.
The response of a fluorescence probe at a specific site (such as site I), therefore, could also shed some light on the binding of the other site (e.g. site II). Study of this synergetic interaction between two binding sites could lead to improved understanding on the protein-dye interaction.

BSA [4] = target: T2, BSA; assay: Absorption titration with BSA, 1:1 binding model (dissociation constant); parameters: species or system bovine; details: absorption titration in aqueous solution
Source text: as §3

[5] = tested on: BSA injected into zebrafish embryos; assay: DNSA-SQ labeling of live developing zebrafish embryos; type: in vivo
Source text: as §1

lysozyme = target: T4, lysozyme (Gallus gallus, UniProt P00698); assay: Fluorescence response to lysozyme in PBS; type: binding
T4 construct: purchased SIGMA
T4 sequence (P00698 19-147): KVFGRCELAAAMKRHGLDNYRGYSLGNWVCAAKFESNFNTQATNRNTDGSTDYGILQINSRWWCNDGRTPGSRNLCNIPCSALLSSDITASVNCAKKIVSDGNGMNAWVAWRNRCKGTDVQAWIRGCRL
Protocol: as §2

BSA [6] = target: T2, BSA; assay: ESI travelling wave ion mobility mass spectrometry (TWIMS) of BSA-guest complexes; parameters: species or system bovine; details: 15+ charge state
Source text: Ion mobility mass spectrometry, when coupled with ESI, can produce an array of multiply charged gas-phase ions from protein molecules in solution which is related to the solution-phase folded and unfolded conformation of the protein. The structural measurement, namely, collision cross-section, can be calculated from the drift time of each ion. Herein we use travelling wave ion mobility mass spectrometry (TWIMS) to detect the change of the protein conformation after different site selective binding guests were added in BSA buffer solution. TWIMS was performed under the same conditions to ensure minimal error for compassion. […] As shown in FIG. 19(c), the ions of DP were generated through the tandem MS of intact complex ions at 15+. Taking 15+ charge state for example, the mobility peak drift time tD=6.41, 6.80, 6.67 and 6.54 ms for BSA, BSA+DP, BSA+DNSA-SQ and BSA+DNSA, respectively. The corresponding experimental collision cross-sections (CCS) are 4298, 4364, 4342 and 4320 Å2 using standard curve. […] This finding is consistent with the fluorescence change discussed above, particularly for the fluorescence enhancement by adding DP to BSA/DNSA-SQ.

trypsin = assay: Fluorescence response to trypsin in PBS; type: binding
Protocol: as §2

fibrinogen = target: T5, fibrinogen (Homo sapiens, UniProt P02671+P02675+P02679); assay: Fluorescence response to fibrinogen in PBS; type: binding
T5 sequence (P02671 20-629 limits assumed): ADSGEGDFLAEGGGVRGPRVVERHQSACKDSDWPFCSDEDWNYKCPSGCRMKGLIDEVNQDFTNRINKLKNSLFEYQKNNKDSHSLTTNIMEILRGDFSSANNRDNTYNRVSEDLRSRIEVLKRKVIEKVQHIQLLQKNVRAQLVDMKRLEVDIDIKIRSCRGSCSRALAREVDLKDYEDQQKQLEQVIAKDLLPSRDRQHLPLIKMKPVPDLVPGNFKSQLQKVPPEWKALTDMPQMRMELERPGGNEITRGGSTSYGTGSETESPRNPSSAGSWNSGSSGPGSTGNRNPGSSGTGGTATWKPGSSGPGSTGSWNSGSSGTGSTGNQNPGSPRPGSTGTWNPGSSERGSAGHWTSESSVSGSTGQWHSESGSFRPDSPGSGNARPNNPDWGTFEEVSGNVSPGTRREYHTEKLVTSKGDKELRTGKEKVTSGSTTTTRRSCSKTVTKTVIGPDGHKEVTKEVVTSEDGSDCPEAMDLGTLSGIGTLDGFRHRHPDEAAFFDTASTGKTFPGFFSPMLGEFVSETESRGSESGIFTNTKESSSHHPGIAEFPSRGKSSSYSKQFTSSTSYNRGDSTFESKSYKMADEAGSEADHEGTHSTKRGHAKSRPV
T5 sequence (P02675 31-491): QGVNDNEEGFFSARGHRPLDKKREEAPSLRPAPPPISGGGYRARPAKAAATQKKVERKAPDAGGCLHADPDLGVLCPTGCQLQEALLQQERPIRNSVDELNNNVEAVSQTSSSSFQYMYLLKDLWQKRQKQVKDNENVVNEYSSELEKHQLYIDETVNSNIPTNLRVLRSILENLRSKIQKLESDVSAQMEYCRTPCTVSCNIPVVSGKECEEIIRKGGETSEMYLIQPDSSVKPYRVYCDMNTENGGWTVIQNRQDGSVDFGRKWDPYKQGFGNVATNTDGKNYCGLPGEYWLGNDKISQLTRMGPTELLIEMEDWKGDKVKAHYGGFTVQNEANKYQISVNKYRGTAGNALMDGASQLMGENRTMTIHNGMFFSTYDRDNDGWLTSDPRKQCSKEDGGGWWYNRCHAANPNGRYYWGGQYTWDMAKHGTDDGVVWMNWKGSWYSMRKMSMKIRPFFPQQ
T5 sequence (P02679 27-433 limits assumed): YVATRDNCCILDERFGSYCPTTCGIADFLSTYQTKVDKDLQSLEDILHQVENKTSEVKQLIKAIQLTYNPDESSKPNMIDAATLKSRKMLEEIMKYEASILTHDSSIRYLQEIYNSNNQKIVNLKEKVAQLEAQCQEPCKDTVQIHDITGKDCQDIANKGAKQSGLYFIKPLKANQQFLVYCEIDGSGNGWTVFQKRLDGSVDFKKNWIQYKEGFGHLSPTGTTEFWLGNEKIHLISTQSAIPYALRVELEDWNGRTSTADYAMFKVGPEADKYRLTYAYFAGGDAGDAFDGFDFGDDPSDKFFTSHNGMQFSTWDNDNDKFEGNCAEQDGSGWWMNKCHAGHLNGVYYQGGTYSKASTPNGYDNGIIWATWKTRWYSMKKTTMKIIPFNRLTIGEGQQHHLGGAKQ
Protocol: as §2

chymotrypsin = assay: Fluorescence response to chymotrypsin in PBS; type: binding
Protocol: as §2

lipase = assay: Fluorescence response to lipase in PBS; type: binding
Protocol: as §2

[7] = dye in fish tank water, one hour, room temperature

CCN1C(=CC2=C([N-]S(=O)(=O)c3cccc4c(N(C)C)cccc34)C(=Cc3sc4ccccc4[n+]3CC)C2=O)Sc2ccccc21 [DNSA-SQ]
size and shape of treated embryos/larvae compared to untreated (zebrafish embryos/larvae): appeared normal in size and shape
toxicity to treated embryos/larvae (zebrafish embryos/larvae): not toxic
fluorescence change with formaldehyde dehydrogenase [1]: no obvious fluorescence change
fluorescence quantum yield φfl [2]: 1.0×10^−4
fluorescence enhancement upon binding BSA (BSA [3]; 674 nm, no aggregation agent): over 140 fold
detection limit of BSA (BSA [3]; signal-to-noise ratio 3): 1 µg/mL
fluorescence of BSA/DNSA-SQ complex on addition of site I ligand DNSA (BSA site I and site II; displacement by DNSA): did not result in fluorescence intensity change
fluorescence of BSA/DNSA-SQ complex on addition of site II ligand DP (BSA site I and site II; displacement by DP): fluorescence intensity increasing
BSA binding site selectivity (BSA site I and site II; displacement by site-selective ligands and mass spectra data): enters selectively at site I
pKd (BSA [4]): 5.03
labeling of control embryos without BSA supplement ([5]; 2.5, 36 and 73 hpf): no labeling
labeling of BSA-injected embryos at 2.5 hpf [5, 7]: labeling of all dividing cells
labeling of BSA-injected embryos at 73 hpf [5, 7]: confined BSA labeling
cell membrane penetration ([5]; living zebrafish embryos): can easily penetrate through cell membranes
fluorescence change with lysozyme (lysozyme): no obvious fluorescence change
mobility peak drift time tD of BSA-guest complex (BSA [6]): 6.67 ms
experimental collision cross-section (CCS) of BSA-guest complex (BSA [6]; standard curve): 4342 Å2
fluorescence change with trypsin (trypsin): no obvious fluorescence change
fluorescence change with fibrinogen (fibrinogen): no obvious fluorescence change
fluorescence change with chymotrypsin (chymotrypsin): no obvious fluorescence change
fluorescence change with lipase (lipase): no obvious fluorescence change
